Results on three molecules are retold here after patent US20040082614A1, “Methods of treating infection using anitbiotics and glycogen phosphorylase inhibitors” (Pfizer Inc., priority 2002, published 2004).

Like-named read-outs stand apart in the source and are kept apart here.

Common to all, as to type: cell-based
The test system of data set [1] is Chlamydia pneumonia. The data set can be described thus: Minimum bacteriocidal concentration (MBC) determination in Hep2 cells infected with Chlamydia pneumonia, drugs removed at 72 h, further 72 h. To be noted: for reduction of the MBC for azithromycin by the glycogen phosphorylase inhibitor: summary statement, combination with azithromycin. As for the experimental part:
(§1) Hep2 cells maintained in Isocove's Modified Dulbecco's Medium (IMDM) were infected with Chlamydia pneumonia (0.5 MOI for two hours after one hour centrifugation). Cells were then treated with Compound A (0, 5, 10, 20, 30 or 40 μg/ml) or Compound B (0, 5, 10, 20, 30 or 40 μg/ml) alone and/or in combination with azithromycin (Pfizer, Inc., New York, N.Y.) 0, 0.005, 0.0158, 0.050, 0.158, or 0.5 μg/ml). For minimum inhibitory concentration (MIC) determination, cells were terminated for analysis at 72 h after the addition of drugs. For minimum bacteriocidal concentration (MBC) determination, drugs were removed at 72 h post-treatment, the media was replaced, and cells were maintained for an additional 72 h before termination. At termination, cells were analyzed for quantitation of inclusion bodies using fluorescent microscopy, and general cell viability by microscopic visualization.

In a further data set the test system is Hep2 cells. The data set can be described thus: General cell viability / host cell appearance by microscopic visualization. As for the experimental part: as §1
Data set [2] relates to Chlamydia pneumonia. The data set is described as follows: Minimum inhibitory concentration (MIC) determination in Hep2 cells infected with Chlamydia pneumonia, inclusion bodies by fluorescent microscopy. The note with it: for antibacterial effects of the combination with azithromycin: MIC and MBC. As for the experimental part:
as §1

[3] abbreviates: Chlamydia, 72 h, drug alone, drugs removed at 72 h, additional 72 h, read-out: MBC.
Setting [4] is: Chlamydia, 72 h, drug alone, 72 h after addition of drugs, read-out: MIC.
The mark [5] stands for this setting: combined with 5 μg/ml Compound A.
Where [6] appears, read: combined with 30 μg/ml Compound B.

Take `O=C(N[C@@H](Cc1ccccc1)[C@@H](O)C(=O)N1C[C@@H](O)[C@@H](O)C1)c1cc2cc(Cl)ccc2[nH]1` [Compound B]: the MBC in the data set with Chlamydia pneumonia [1] (drug alone, drugs removed at 72 h, additional 72 h) is > 40 µg/mL. The “reduction of the MBC for azithromycin by the glycogen phosphorylase inhibitor” value with Chlamydia pneumonia [1] is recorded as 3 fold. Further, in the data set with Hep2 cells, the “changes in host cell appearance” value is “not associated with any changes in host cell appearance”. In addition, the “antibacterial effects of the combination with azithromycin” value with Chlamydia pneumonia [2] is given as “synergy of antibacterial effects”. The MIC in the data set on Chlamydia pneumonia [2] (drug alone, 72 h after addition of drugs) was > 40 µg/mL.
For the molecule `O=C(N[C@@H](Cc1ccc(F)cc1)C(=O)N1CCC(O)CC1)c1cc2cc(Cl)ccc2[nH]1` [Compound A, 5-chloro-1H-indole-2-carboxylic acid [(1S)-(4-fluoro-benzyl)-2-(4-hydroxypiperidin-1-yl)-2-oxo-ethyl]-amide], in the data set on Chlamydia pneumonia [1] (setting [3]), the MBC came to 30 µg/mL. Moreover, the “reduction of the MBC for azithromycin by the glycogen phosphorylase inhibitor” value in the data set with Chlamydia pneumonia [1] is on record as 3-10 fold. Moreover, in the data set with Hep2 cells (Hep2 host cells), the “concentrations associated with changes in host cell appearance” value is ≥ 30000 ng/mL. Further, the MIC with Chlamydia pneumonia [2] (setting [4]) was 20 µg/mL. For the same molecule, the “antibacterial effects of the combination with azithromycin” value with Chlamydia pneumonia [2] is reported as “synergy of antibacterial effects”.
For `CC[C@H]1OC(=O)[C@H](C)[C@@H](O[C@H]2C[C@@](C)(OC)[C@@H](O)[C@H](C)O2)[C@H](C)[C@@H](O[C@@H]2O[C@H](C)C[C@H](N(C)C)[C@H]2O)[C@](C)(O)C[C@@H](C)CN(C)[C@H](C)[C@@H](O)[C@]1(C)O` [Azithromycin, 9a-aza-9a-methyl-9-deoxo-9a-homoerythromycin A], the MBC was 0.5 µg/mL in the data set on Chlamydia pneumonia [1] (setting [3]); 0.158 µg/mL in the data set on Chlamydia pneumonia [1] (Chlamydia, combined with 5 μg/ml Compound A, read-out: azithromycin concentration required for MBC); 0.05 µg/mL in the data set with Chlamydia pneumonia [1] (Chlamydia, combined with 20 μg/ml Compound A, read-out: azithromycin concentration required for MBC); 0.158 µg/mL in the data set on Chlamydia pneumonia [1] (Chlamydia, combined with 30 μg/ml Compound B, read-out: azithromycin concentration required for MBC). In addition, the “decrease in azithromycin concentration required for MBC” value came out at 3 fold in the data set with Chlamydia pneumonia [1] (setting [5]), 10 fold with Chlamydia pneumonia [1] (combined with 20 μg/ml Compound A) and 3 fold in the data set with Chlamydia pneumonia [1] (setting [6]). The MIC with Chlamydia pneumonia [2] (setting [4]) is 0.158 µg/mL; in the data set with Chlamydia pneumonia [2] (Chlamydia, combined with 5 μg/ml Compound A, read-out: azithromycin concentration required for MIC) it was 0.05 µg/mL; in the data set on Chlamydia pneumonia [2] (Chlamydia, combined with 10 μg/ml Compound A, read-out: azithromycin concentration required for MIC), 0.0158 µg/mL; with Chlamydia pneumonia [2] (Chlamydia, combined with 10 μg/ml Compound B, read-out: azithromycin concentration required for MIC), 0.05 µg/mL; with Chlamydia pneumonia [2] (Chlamydia, combined with 30 μg/ml Compound B, read-out: azithromycin concentration required for MIC) it was 0.0158 µg/mL. The “decrease in azithromycin concentration required for MIC” value is given as 3 fold with Chlamydia pneumonia [2] (setting [5]), 10 fold in the data set on Chlamydia pneumonia [2] (combined with 10 μg/ml Compound A), 3 fold in the data set on Chlamydia pneumonia [2] (combined with 10 μg/ml Compound B) and 10 fold in the data set on Chlamydia pneumonia [2] (setting [6]).
